Test [1] can be described thus: Cytotoxicity against human DU145 cells incubated for 72 hrs by alamar blue abased assay. It is filed as functional. The conditions noted are these: DU-145, 72 h. A general note: The colour change of resazurin is a common sign of viable cells or microbes.
Test [2] can be described thus: Cytotoxicity against human HCT116 cells incubated for 72 hrs by alamar blue abased assay. It is filed as functional. The conditions noted are these: HCT-116, 72 h.
Test [3] can be described thus: Cytotoxicity against human MDA-MB-231 cells incubated for 72 hrs by alamar blue abased assay. It is filed as functional. The conditions noted are these: MDA-MB-231, 72 h.
The nature of test [4]: Cytotoxicity against mouse L929 cells. It is filed as functional, cell-based.
Test [5] can be described thus: Cytotoxicity against human SW480 cells. It is filed as functional, cell-based.
The nature of test [6]: Cytotoxicity against human KB-3-1 cells. It is filed as functional, cell-based.
Test [7] is described as follows: Cytotoxicity against human T98 cells. It is filed as functional, cell-based.

Some results are limits rather than exact numbers.

Usually GI50 stands for the concentration that inhibits growth by half. Read a high GI50 as lower sensitivity of the cells. In the case of `CC[C@H](C)[C@H](NC(=O)[C@H]1CCCCN1)C(=O)N(C)[C@H](C[C@@H](OC(C)=O)c1nc(C(=O)N[C@@H](Cc2ccccc2)C[C@H](C)C(=O)O)cs1)C(C)C`, the GI50 worked out at 46.2 nM in test [1], 21.3 nM in test [2] and 19.6 nM in test [3].
For `CC[C@H](C)[C@H](NC(=O)[C@@H](c1ccccc1)N(C)C)C(=O)N(C)[C@H](C[C@@H](OC(C)=O)c1nc(C(=O)N[C@@H](Cc2ccccc2)C[C@H](C)C(=O)O)cs1)C(C)C`, the values for the GI50 in test [1], in test [2] and in test [3] were 82.3 nM, 52.5 nM and 111 nM, respectively.
For the compound `CC[C@H](C)[C@H](NC(=O)[C@@H]1CC(C)(C)CCN1C)C(=O)N(C)[C@H](C[C@@H](OC(C)=O)c1nc(C(=O)N[C@@H](Cc2ccccc2)C[C@H](C)C(=O)O)cs1)C(C)C`, the 50% growth inhibitory concentration (GI50) in test [1] was 50.6 nM; in test [2], 88 nM; in test [3] it was 118 nM.
Taken in the same sequence, the figures for `CC[C@H](C)[C@H](NC(=O)[C@H]1CC(C)(C)CCN1C)C(=O)N(C)[C@H](C[C@@H](OC(C)=O)c1nc(C(=O)N[C@@H](Cc2ccccc2)C[C@H](C)C(=O)O)cs1)C(C)C` were 1.3 nM, 1.8 nM and 3.9 nM.
For the compound `CC[C@H](C)[C@H](NC(=O)[C@H]1C[C@H](C)CCN1C)C(=O)N(C)[C@H](C[C@@H](OC(C)=O)c1nc(C(=O)N[C@@H](Cc2ccccc2)C[C@H](C)C(=O)O)cs1)C(C)C`, the GI50 came to 0.9 nM in test [1], 0.5 nM in test [2] and 3.4 nM in test [3].
In the same order, the values of `CC[C@H](C)[C@H](NC(=O)[C@H]1CCCCN1C)C(=O)N(C)[C@H](C[C@@H](OC(C)=O)c1nc(C(=O)N[C@@H](Cc2ccccc2)C[C@H](C)C(=O)NN)cs1)C(C)C` are 6.63 nM, 6.09 nM and 5.24 nM.
In the same order, the values of `CC[C@H](C)[C@H](NC(=O)[C@H]1CCCCN1C)C(=O)N(C)[C@H](C[C@@H](OC(C)=O)c1nc(C(=O)N[C@@H](Cc2ccccc2)C[C@H](C)C(N)=O)cs1)C(C)C` are 0.948 nM, 0.737 nM and 1.06 nM.
With `CC[C@H](C)[C@H](NC(=O)[C@@H](C(C)C)N(C)CC)C(=O)N(C)[C@H](C[C@@H](OC(C)=O)c1nc(C(=O)N[C@@H](Cc2ccccc2)C[C@H](C)C(=O)O)cs1)C(C)C`, the GI50 in test [1] is 2940 nM; in test [2], 1640 nM; in test [3], 3020 nM.
In the same order, the values of `CC[C@H](C)[C@H](NC(=O)[C@H]1CCCCN1C)C(=O)N(C)[C@H](C[C@@H](OC(C)=O)c1nc(C(=O)N[C@H](CN)Cc2ccccc2)cs1)C(C)C` are 2.7 nM, 5.9 nM and 9 nM.
For the compound `CC[C@H](C)[C@H](NC(=O)[C@H]1CCc2ccccc2N1C)C(=O)N(C)[C@H](C[C@@H](OC(C)=O)c1nc(C(=O)N[C@@H](Cc2ccccc2)C[C@H](C)C(=O)O)cs1)C(C)C`, the GI50 in test [1], in test [2] and in test [3] was more than 3330 nM each time.
As for `CC[C@H](C)[C@H](NC(=O)[C@H]1CCCCN1)C(=O)N(C)[C@H](C[C@@H](OC(C)=O)c1nc(C(=O)N[C@@H](Cc2ccccc2)C[C@H](C)C(=O)OC)cs1)C(C)C`, the figures for the GI50 in test [1], in test [2] and in test [3] were 11.5 nM, 3.68 nM and 9.39 nM, respectively.
Taken in the same sequence, the figures for `CC[C@H](C)[C@H](NC(=O)[C@H]1COCCN1)C(=O)N(C)[C@H](C[C@@H](OC(C)=O)c1nc(C(=O)N[C@@H](Cc2ccccc2)C[C@H](C)C(=O)O)cs1)C(C)C` were 2280 nM, 1380 nM and more than 3330 nM.
Taken in the same sequence, the figures for `CC[C@H](C)[C@H](NC(=O)[C@H]1CCCCN1C(C)=O)C(=O)N(C)[C@H](C[C@@H](OC(C)=O)c1nc(C(=O)N[C@@H](Cc2ccccc2)C[C@H](C)C(=O)O)cs1)C(C)C` were more than 3330 nM, 798 nM and more than 3330 nM.
In the same order, the values of `CC[C@H](C)[C@H](NC(=O)[C@@H](C)N(C)C)C(=O)N(C)[C@H](C[C@@H](OC(C)=O)c1nc(C(=O)N[C@@H](Cc2ccccc2)C[C@H](C)C(=O)O)cs1)C(C)C` are 4.5 nM, 2.5 nM and 3.9 nM.
On to `CC[C@H](C)[C@H](NC(=O)C1(C)CCCCN1C)C(=O)N(C)[C@H](C[C@@H](OC(C)=O)c1nc(C(=O)N[C@@H](Cc2ccccc2)C[C@H](C)C(=O)O)cs1)C(C)C` (some centres undefined), for which the GI50 in test [1] amounted to 1.2 nM.
Take `CCCN(C)[C@@H](C(=O)N[C@H](C(=O)N(C)[C@H](C[C@@H](OC(C)=O)c1nc(C(=O)N[C@@H](Cc2ccccc2)C[C@H](C)C(=O)O)cs1)C(C)C)[C@@H](C)CC)C(C)C`: the GI50 in test [1], in test [2] and in test [3] was more than 3330 nM in each case.
`CC[C@H](C)[C@H](NC(=O)[C@H]1CC2CCN1CC2)C(=O)N(C)[C@H](C[C@@H](OC(C)=O)c1nc(C(=O)N[C@@H](Cc2ccccc2)C[C@H](C)C(=O)O)cs1)C(C)C`: the GI50 was 428 nM in test [1], 214 nM in test [2] and 196 nM in test [3].
In the same order, the values of `CC[C@H](C)[C@H](NC(=O)[C@H]1CCCCN1C)C(=O)N(C)[C@H](C[C@@H](O)c1nc(C(=O)N[C@@H](Cc2ccccc2)C[C@H](C)C(=O)O)cs1)C(C)C` are 363 nM, 110 nM and 169 nM.
In the same order, the values of `CC[C@H](C)[C@H](NC(=O)[C@H]1COCCN1C)C(=O)N(C)[C@H](C[C@@H](OC(C)=O)c1nc(C(=O)N[C@@H](Cc2ccccc2)C[C@H](C)C(=O)O)cs1)C(C)C` are 808 nM, 408 nM and 998 nM.
Consider `CC[C@H](C)[C@H](NC(=O)[C@H]1CCSCN1C)C(=O)N(C)[C@H](C[C@@H](OC(C)=O)c1nc(C(=O)N[C@@H](Cc2ccccc2)C[C@H](C)C(=O)O)cs1)C(C)C`, for which the GI50 is 136 nM in test [1], 64.2 nM in test [2] and 125 nM in test [3].
In the case of `CC[C@H](C)[C@H](NC(=O)[C@@H](Cc1ccccc1)N(C)C)C(=O)N(C)[C@H](C[C@@H](OC(C)=O)c1nc(C(=O)N[C@@H](Cc2ccccc2)C[C@H](C)C(=O)O)cs1)C(C)C`, the GI50 is 134 nM in test [1], 103 nM in test [2] and 225 nM in test [3].
As for `CC[C@H](C)[C@H](NC(=O)[C@H]1CCCN1C)C(=O)N(C)[C@H](C[C@@H](OC(C)=O)c1nc(C(=O)N[C@@H](Cc2ccccc2)C[C@H](C)C(=O)O)cs1)C(C)C`, the GI50 was determined as 1 nM in test [1], 0.6 nM in test [2] and 3.3 nM in test [3].
Taken in the same sequence, the figures for `CC[C@H](C)[C@H](NC(=O)[C@H]1CSCN1C)C(=O)N(C)[C@H](C[C@@H](OC(C)=O)c1nc(C(=O)N[C@@H](Cc2ccccc2)C[C@H](C)C(=O)O)cs1)C(C)C` were 1120 nM, 352 nM and 816 nM.
As for `CC[C@H](C)[C@H](NC(=O)[C@H]1CSCCN1C)C(=O)N(C)[C@H](C[C@@H](OC(C)=O)c1nc(C(=O)N[C@@H](Cc2ccccc2)C[C@H](C)C(=O)O)cs1)C(C)C`, the GI50 is 166 nM in test [1], 69.3 nM in test [2] and 226 nM in test [3].
For the compound `CC[C@H](C)[C@H](NC(=O)[C@@H](C(C)C)N(C)C)C(=O)N(C)[C@H](C[C@@H](OC(C)=O)c1nc(C(=O)N[C@@H](Cc2ccccc2)C[C@H](C)C(=O)O)cs1)C(C)C`, the GI50 is 9.6 nM in test [1], 4.4 nM in test [2] and 10.7 nM in test [3].
On to `CC[C@H](C)[C@H](NC(=O)[C@H]1C[C@@H](C)CN1C)C(=O)N(C)[C@H](C[C@@H](OC(C)=O)c1nc(C(=O)N[C@@H](Cc2ccccc2)C[C@H](C)C(=O)O)cs1)C(C)C`, for which the GI50 is 1.7 nM in test [1], 0.8 nM in test [2] and 4.2 nM in test [3].
In the case of `CC[C@H](C)[C@H](NC(=O)[C@@H](CC(C)C)N(C)C)C(=O)N(C)[C@H](C[C@@H](OC(C)=O)c1nc(C(=O)N[C@@H](Cc2ccccc2)C[C@H](C)C(=O)O)cs1)C(C)C`, the values for the GI50 in test [1], in test [2] and in test [3] were 17 nM, 8.2 nM and 19.1 nM, respectively.
In the same order, the values of `CC[C@H](C)[C@H](NC(=O)[C@H]1CCCCN1CCN)C(=O)N(C)[C@H](C[C@@H](OC(C)=O)c1nc(C(=O)N[C@@H](Cc2ccccc2)C[C@H](C)C(=O)O)cs1)C(C)C` are 176 nM, 174 nM and 243 nM.
A word on the IC50: it is the concentration needed to halve the response being measured. In the case of `CC[C@H](C)[C@H](NC(=O)[C@H]1CCCCN1C)C(=O)N(C)[C@H](C[C@@H](OC(C)=O)c1nc(C(=O)N[C@@H](Cc2ccccc2)C[C@H](C)C(=O)O)cs1)C(C)C`, the GI50 is 0.71 nM in test [1], 0.62 nM in test [2] and 1.14 nM in test [3]. For the same compound, the IC50 in test [4] was found to be 0.34 nM; in test [5], 0.02 nM; in test [6], 0.19 nM; in test [7] it was 1.6 nM.

Source of the values: ChEMBL document CHEMBL3860102, “Structure-Cytotoxicity Relationships of Analogues of N14-Desacetoxytubulysin H” (J Med Chem, 2016).
